Source: paper PMC4842970, “Bioactivity Focus of α-Cyano-4-hydroxycinnamic acid (CHCA) Leads to Effective Multifunctional Aldose Reductase Inhibitors” (Scientific Reports, 2016)

Assays:
human ALR2 = biological target: T1, human ALR2 (Homo sapiens, UniProt P15121); assay: ALR2 inhibition (in vitro reduction of D,L-glyceraldehyde); type: biochemical
T1 construct: purchased WAKO Pure Chemical Industries, Ltd. (Japan); host or cells: baculovirus-insect cell expression system
Experimental: Human ALR2 was purchased from WAKO Pure Chemical Industries, Ltd. (Japan), which was purified from the culture medium of baculovirus-insect cell expression system. […] ALR2 inhibition was determined spectrophotometrically according to the procedure described previously.

[1] = ORACFL radical absorbance capacity assay
Description: With the CHCA scaffold, we hypothesized that 5a–j should have antioxidant activity. Therefore, a radical absorbance capacity assay (ORACFL)[41] was employed to assess their capacities. This method is based on the inhibition of peroxyl-radical-induced oxidation initiated by thermal decomposition of azo-compounds, in this case 2,2′-azo-bis (2-amidinopropane) dihydrochloride (AAPH). Trolox (6-hydroxy-2,5,7,8-tetramethylchroman-2-carboxylic acid) was used as a standard reference. Data is expressed as micromoles of Trolox equivalents (TE) per […] of sample (μmol TE/ml or U/ml).
Antioxidant capacity was determined according to the procedure described previously.

HEK293 cells = assay: Cytotoxicity, MTT growth inhibition; type: cell-based, human; details: 500 μM
Experimental: In another aspect, the toxicity was evaluated by the growth inhibition of 5f against human embryonic kidney 293 (HEK293) cells. It was shown that 5f was nontoxic to HEK293 cells even at high concentration of 500 μM (Supplementary B of Fig. S2).
HEK293 cells were purchased from Centre of Cells Resource, Shanghai Institute of Life Science, Chinese Academy of Sciences, P. R. China. HEK293 cells in the exponential phase were plated on a 96-well cell culture plate with 5 × 10^3 cells in each well supplemented with 100 U/ml of penicillin and 100 μg/ml of streptomycin, which were cultured in a humidified atmosphere of 95% and 5% CO2 at 37 °C for 24 h. The cells were adherent. […] 6 wells were set for each group. The wells without addition of the drug were set as controls. The cells in each of the wells were cultured for another 24 h. Then 15 μl of MTT (5 mg/mL) was added to each well. The plates were then incubated at 37 °C for 4 hours, then the supernatants were discarded. 150 μL of DMSO solutions were added to each of the wells and the solutions were mixed thoroughly. Then the plates were incubated at 37 °C for another 10 minutes. Each sample was mixed again and the resulting formazan was measured by its absorbance at 570 nm using a BIO-RAD680 plate reader (Thermo, USA). The experiments were repeated at least 3 times and compared with the control experiment. […]

sorbitol content = assay: Sorbitol content in glucose-treated embryos; type: in vivo; details: glucose-treated chick embryos, EDD 5, dose 1 μM
Experimental: As expected, treatment of 5f decreased ALR2 activity in a dose-dependent manner. […] However, EDA, which is a clinical radical scavenger, was shown no effect on the inhibition of ALR2.
Embryos on EDD 5 were homogenized with chicken saline and centrifuged (4 °C, 10000 rpm, 10 min). The supernatant was used for measuring AR activity in the sample. A chicken AR ELISA kit (Jianglai Biotechnology, China) were used for detection. The concentration of AR in the samples was then determined by comparing the OD of the samples to the standard curve. The sorbitol contents of the chick embryo were determined by a Sorbitol Colorimetric Assay Kit (BioVision, USA). In the assay, sorbitol is oxidized to fructose with the proportional development of intense color with an absorbance maximum at 560 nm.

[2] = tested on: oxidative stress (ROS, MDA, ORAC); assay: ROS generation, MDA and ORAC level in chick embryos; type: in vivo; details: glucose-treated chick embryos
Description: It has been reported that hyperglycemia increased the production of ROS. Blocking the generation of ROS could at least partially prevent the possible damage of hyperglycemia. No doubt, oxidative stress will be induced in glucose treated embryos. This conclusion was confirmed by the determination of ROS and malondialdehyde (MDA) levels, and the anti-oxidation ability in chick embryos on EDD 5. […] However, treatment of 5f decreased both levels of ROS and MDA in a dose-dependent manner.
In addition, the ORAC level is indicative of the anti-oxidative capacity.
ROS generation ratios in the eyes of EDD 5 chick embryos were detected with 5 μmol 2′,7′-dichlorofluorescein-diacetate (DCFH-DA, Sigma-Aldrich). The peroxide content was determined by measuring thiobarbituric-acid-reactive substances (TBARS) with a commercial MDA kit (Nanjing Jiancheng Institute of Biotechnology, Nanjing, China). The procedures for the ORAC assay were modified from the previously described method. The automated ORAC assay was carried out on a decay of the fluorescein signal and determined with an excitation/emission filter pair of 485/527 nm in a GENios Lueifcrase microplate reader (TECAN) at 37 °C. Final results were calculated on the basis of the difference in the area under the fluorescein decay curve between the blank and each sample.

Pax3 = Pax3 protein expression in chick embryos (Western blotting); type: in vivo; details: glucose-treated chick embryos, EDD 5
Experimental: (§1) Figure 4 5f restored neural tube development and marker expression in chick embryos on EDD 5. Glucose concentration (A) and Pax3 protein expression (B) were determined in chick embryos. The plasma glucose concentration was measured using a glucose oxidase-coupled spectrophotometric assay kit. Proteins were detected using the monoclonal antibody anti-Pax3 diluted 1:1000 (DSHB, USA) and visualized using anti-mouse IgG conjugated with horseradish peroxidase (HRP) and Pierce ECL Western Blotting Substrate (Thermo Fisher Scientific, USA) as the substrate of HRP. […] Values were expressed as mean ± SD in each group (n = 10). *P < 0.05, **P < 0.01 vs. control. ^#P < 0.05, ^##P < 0.01 vs. glucose.
The eyes of EDD 5 chick embryos were separated and lysed in lysis buffer (Beyotime Institute of Biotechnology, China) on ice for 10 min. After centrifugation of the cell suspension at 12000 rpm for 15 min, the protein content of the supernatant was determined with a Pierce BCA protein assay kit (Thermo Fisher Scientific, USA) to ensure equal sample loading. […] Proteins were detected using the monoclonal antibody anti-Pax3 diluted 1:1000 (DSHB, USA) and visualized using anti-mouse IgG conjugated with horseradish peroxidase (HRP) and Pierce ECL Western Blotting Substrate (Thermo Fisher Scientific, USA) as the substrate of HRP.

[3] = Plasma glucose in chick embryos; type: in vivo; details: glucose-treated chick embryos, EDD 5
Experimental: as §1
The ventricles of embryos were punctured with a 20-gauge needle. At this early embryonic age, 30–40 μL of blood was obtained from the embryos on each EDD 5. The blood containing heparin was centrifuged at 3000 rpm for 15 min. The plasma glucose concentration was measured using a glucose oxidase-coupled spectrophotometric assay kit obtained from Sigma Chemical Co. (St. Louis, MO, USA) according to the manufacturer’s instructions.

**Q.** Which results are given for `CC(=O)N[C@H](COCc1ccccc1)C(=O)NCCCNC(=O)/C(C#N)=C/c1ccc(O)cc1` [Compound 5f, (R,E) - N - (3-(2-acetamido-3-(benzyloxy)propanamido)propyl)-2-cyano-3-(4-hydroxyphenyl)acrylamide]?
**A.** IC50 (human ALR2; human ALR2, D,L-glyceraldehyde as substrate, read-out: IC50 (ALR2 inhibition)): 72.7 ± 1.6 nM; ALR2 inhibition activity relative to 5d (human ALR2; ratio of inhibition activity vs 5d): about 5 times; ORAC ([1]; 3.125 μg/ml): 68.1 ± 2.3 U/ml; ORAC ([1]; 6.25 μg/ml): 66.5 ± 1.6 U/ml; ORAC ([1]; 12.5 μg/ml): 65.7 ± 5.1 U/ml; ORAC value ([1]; concentration of 3.125 μM): 65.7 U/ml; inhibition rate (growth inhibition) (HEK293 cells): 19.2%; sorbitol content in embryo (sorbitol content): decreased significantly; ORAC level (anti-oxidative capacity) of embryo ([2]; EDD 5): recovered; MDA level in embryo ([2]; EDD 5, dose 1 μM): to a normal state; ROS level in embryo ([2]; EDD 5, dose 1 μM): to a normal state; Pax3 expression (Pax3): restored; plasma glucose level [3]: did not lower
